Source: ChEMBL document CHEMBL1201862, “PubChem BioAssay data set” (2004)
The source made the active and inactive calls. For most assays here, no stated cut-off is given here; in the data, actives have a measured EC50 and inactives only a lower limit.

Tests used:
[1] = tested on: Streptococcus; experiment: Group A Streptococcus viability loss, dose response, counter-screen for streptokinase expression inhibitor project, luminescence, BacTiterGlo (AID 1915); assay type: functional, organism-based;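 further: potency for reduction of bacterial viability or growth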
[2] = cytotoxicity in KRAS-transformed pancreatic duct cells, primary screen, cell-based, fluorescence, HTS (AID 431); assay type: functional; conditions: Homo sapiens;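 further: cell line used: HPDE-C7K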
[3] = cytotoxicity in HPDE-C7 cells, cell-based, fluorescence, HTS (AID 430); assay type: functional; conditions: Homo sapiens
[4] = tested on: Streptococcus sp. 'group A'; experiment: growth inhibition of control SK(-) GAS strain, dose response, counter-screen for streptokinase expression inhibitor project, luminescence, kanamycin, BacTiterGlo, confirmation (AID 1900); assay type: functional, organism-based
[5] = target: T1, Estrogen receptor (Homo sapiens, UniProt P03372); experiment: potentiators of ERα–SRC-1 coactivator binding, dose response, biochemical, TR-FRET, ERα LBD (AID 737)
T1 sequence (P03372 whole entry): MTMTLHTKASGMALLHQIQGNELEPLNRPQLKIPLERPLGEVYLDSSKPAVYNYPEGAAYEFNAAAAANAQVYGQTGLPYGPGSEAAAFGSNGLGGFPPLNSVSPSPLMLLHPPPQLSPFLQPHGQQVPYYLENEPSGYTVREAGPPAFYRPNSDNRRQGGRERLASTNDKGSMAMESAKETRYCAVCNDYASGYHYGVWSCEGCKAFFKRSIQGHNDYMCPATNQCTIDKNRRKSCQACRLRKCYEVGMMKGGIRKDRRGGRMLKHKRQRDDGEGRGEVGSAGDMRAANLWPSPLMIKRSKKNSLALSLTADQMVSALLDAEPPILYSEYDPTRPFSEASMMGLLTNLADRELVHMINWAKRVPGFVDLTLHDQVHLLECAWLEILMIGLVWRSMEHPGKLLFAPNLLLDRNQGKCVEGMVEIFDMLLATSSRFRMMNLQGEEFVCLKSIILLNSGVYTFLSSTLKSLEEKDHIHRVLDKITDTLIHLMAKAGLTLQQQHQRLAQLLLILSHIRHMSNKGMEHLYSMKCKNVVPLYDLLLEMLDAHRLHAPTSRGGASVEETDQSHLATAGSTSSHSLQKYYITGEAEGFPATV

[6] = target: T2, Streptokinase A (Streptococcus pyogenes serotype M1, UniProt P10520); experiment: S. pyogenes streptokinase expression inhibitors, potency, dose response, plasminogen activation absorbance, OD405 (AID 1914); assay type: functional, Streptococcus pyogenes M1 GAS;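 further: secreted streptokinase activity via plasminogen activation per viability signal from cell pellet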
T2 sequence (P10520 whole entry): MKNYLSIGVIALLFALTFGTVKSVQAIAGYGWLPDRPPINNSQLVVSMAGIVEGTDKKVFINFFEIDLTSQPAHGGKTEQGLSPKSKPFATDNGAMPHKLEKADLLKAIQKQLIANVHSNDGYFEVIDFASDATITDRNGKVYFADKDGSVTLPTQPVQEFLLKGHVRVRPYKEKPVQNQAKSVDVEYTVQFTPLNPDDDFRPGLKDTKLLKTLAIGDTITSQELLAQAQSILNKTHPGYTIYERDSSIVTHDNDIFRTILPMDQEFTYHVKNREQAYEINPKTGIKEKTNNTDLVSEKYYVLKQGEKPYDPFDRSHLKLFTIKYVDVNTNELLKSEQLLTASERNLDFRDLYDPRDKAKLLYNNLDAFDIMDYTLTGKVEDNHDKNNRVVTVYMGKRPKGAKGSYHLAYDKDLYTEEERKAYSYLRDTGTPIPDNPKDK

[7] = Luminescence Cell-Based Dose Confirmation HTS to Identify Activators of 5'UTR Stem-Loop Driven Alpha-Synuclein mRNA Translation in H4 Neuroglioblastoma Cells. [Related pubchem assays: 1829 (Project Summary), 1814 (Primary HTS)]; assay type: functional
[8] = Luminescence Cell-Based Dose Response HTS to Identify Activators of Luciferase Translation or Activity in H4 […] Cells. [Related pubchem assays: 1829 (Project Summary), 1814 (Primary HTS)]; assay type: functional
[9] = tested on: H4; experiment: Luminescence Cell-Based Dose Response HTS to Identify Activators of 5'UTR Stem-Loop Driven Prion Protein mRNA Translation in H4 Neuroglioblastoma Cells. [Related pubchem assays: 1829 (Project Summary), 1814 (Primary HTS)]; assay type: functional; conditions: Homo sapiens
[10] = A High Throughput Confirmatory Assay used to Identify Novel Compounds that Inhibit Mycobacterium Tuberculosis in the absence of Glycerol.; assay type: functional
[11] = target: Ion channel NompC (Danio rerio, UniProt Q7T1G6); experiment: Fluorescence counterscreen assay for TRPML3 agonists: dose response cell-based high-throughput screening assay to identify agonists of the transient receptor potential channel N1 (TRPN1). [Related pubchem assays: 1526, 1424, 1448 ]; assay type: functional
[12] = target: Mucolipin-3 (Homo sapiens, UniProt Q8TDD5); experiment: Dose response cell-based high-throughput screening assay for agonists of the transient receptor potential channel ML3 (TRPML3). [Related pubchem assays: 1526, 1424, 1448 ]; assay type: functional
[13] = target: T3, NADPH oxidase 1 (Homo sapiens, UniProt Q9Y5S8); assay type: functional, cell-based;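 further: Cell-based assay with luminescence read-out, IC50 derived from inhibitor dose-response curves; intracellular ROS from endogenous NOX1 in intact HT29 colon cancer cells; potency of inhibitors that lower the ROS luminescence signal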
T3 sequence (Q9Y5S8 whole entry): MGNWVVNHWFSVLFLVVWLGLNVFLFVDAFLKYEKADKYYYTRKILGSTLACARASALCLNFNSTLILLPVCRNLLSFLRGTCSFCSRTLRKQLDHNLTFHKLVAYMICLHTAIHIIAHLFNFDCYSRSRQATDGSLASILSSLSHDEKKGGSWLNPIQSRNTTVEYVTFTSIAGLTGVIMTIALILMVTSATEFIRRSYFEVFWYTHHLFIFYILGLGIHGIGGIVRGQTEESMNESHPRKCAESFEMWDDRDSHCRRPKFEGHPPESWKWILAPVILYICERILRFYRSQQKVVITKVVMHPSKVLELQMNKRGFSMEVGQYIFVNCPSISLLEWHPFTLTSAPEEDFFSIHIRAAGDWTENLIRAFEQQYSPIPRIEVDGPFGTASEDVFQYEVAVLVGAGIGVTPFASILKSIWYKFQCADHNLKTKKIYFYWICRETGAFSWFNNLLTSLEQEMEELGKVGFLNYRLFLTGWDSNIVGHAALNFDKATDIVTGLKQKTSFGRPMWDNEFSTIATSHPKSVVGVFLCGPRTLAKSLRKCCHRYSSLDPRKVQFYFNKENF

Ion channel NompC, sequence (Q7T1G6 whole entry): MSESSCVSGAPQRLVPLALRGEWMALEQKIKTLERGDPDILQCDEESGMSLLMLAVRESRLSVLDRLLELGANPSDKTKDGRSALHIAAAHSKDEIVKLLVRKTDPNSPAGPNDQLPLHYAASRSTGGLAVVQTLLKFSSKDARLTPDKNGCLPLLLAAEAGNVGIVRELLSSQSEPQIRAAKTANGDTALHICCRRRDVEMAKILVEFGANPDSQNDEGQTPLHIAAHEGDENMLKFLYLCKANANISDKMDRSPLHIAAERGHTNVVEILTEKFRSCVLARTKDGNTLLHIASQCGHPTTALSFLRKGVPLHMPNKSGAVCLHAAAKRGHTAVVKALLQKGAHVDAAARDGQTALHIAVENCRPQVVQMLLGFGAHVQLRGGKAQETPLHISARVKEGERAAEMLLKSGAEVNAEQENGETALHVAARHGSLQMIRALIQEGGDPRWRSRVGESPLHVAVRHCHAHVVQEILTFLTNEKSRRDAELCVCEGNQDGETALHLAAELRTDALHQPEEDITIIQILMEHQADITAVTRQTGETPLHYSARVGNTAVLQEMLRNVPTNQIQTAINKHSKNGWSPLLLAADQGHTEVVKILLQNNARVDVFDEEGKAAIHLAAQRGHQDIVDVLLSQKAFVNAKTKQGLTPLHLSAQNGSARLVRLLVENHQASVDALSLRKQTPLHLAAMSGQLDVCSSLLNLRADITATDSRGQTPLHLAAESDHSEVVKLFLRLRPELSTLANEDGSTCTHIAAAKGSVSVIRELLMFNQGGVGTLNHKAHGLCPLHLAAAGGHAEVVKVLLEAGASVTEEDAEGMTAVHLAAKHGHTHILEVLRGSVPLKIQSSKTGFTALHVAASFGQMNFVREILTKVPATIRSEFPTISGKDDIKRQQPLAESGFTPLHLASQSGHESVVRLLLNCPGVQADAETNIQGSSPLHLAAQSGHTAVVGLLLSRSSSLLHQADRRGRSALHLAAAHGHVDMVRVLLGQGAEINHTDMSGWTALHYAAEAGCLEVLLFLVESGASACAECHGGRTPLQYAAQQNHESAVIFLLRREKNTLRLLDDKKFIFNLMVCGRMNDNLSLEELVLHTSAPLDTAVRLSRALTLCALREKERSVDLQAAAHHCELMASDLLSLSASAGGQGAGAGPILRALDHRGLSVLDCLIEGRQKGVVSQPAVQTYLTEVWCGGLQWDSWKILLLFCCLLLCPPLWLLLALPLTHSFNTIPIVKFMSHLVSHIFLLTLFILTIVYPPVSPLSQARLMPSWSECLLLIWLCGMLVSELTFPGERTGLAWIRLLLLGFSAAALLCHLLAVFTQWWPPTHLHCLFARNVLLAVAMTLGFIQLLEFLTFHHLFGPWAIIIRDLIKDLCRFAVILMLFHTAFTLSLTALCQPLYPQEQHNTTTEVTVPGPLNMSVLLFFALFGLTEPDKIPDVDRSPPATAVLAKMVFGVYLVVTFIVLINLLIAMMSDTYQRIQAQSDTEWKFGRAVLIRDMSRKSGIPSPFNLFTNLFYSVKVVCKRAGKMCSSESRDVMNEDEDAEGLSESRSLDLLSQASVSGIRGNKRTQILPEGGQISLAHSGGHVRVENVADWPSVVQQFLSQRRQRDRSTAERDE
Mucolipin-3, sequence (Q8TDD5 whole entry): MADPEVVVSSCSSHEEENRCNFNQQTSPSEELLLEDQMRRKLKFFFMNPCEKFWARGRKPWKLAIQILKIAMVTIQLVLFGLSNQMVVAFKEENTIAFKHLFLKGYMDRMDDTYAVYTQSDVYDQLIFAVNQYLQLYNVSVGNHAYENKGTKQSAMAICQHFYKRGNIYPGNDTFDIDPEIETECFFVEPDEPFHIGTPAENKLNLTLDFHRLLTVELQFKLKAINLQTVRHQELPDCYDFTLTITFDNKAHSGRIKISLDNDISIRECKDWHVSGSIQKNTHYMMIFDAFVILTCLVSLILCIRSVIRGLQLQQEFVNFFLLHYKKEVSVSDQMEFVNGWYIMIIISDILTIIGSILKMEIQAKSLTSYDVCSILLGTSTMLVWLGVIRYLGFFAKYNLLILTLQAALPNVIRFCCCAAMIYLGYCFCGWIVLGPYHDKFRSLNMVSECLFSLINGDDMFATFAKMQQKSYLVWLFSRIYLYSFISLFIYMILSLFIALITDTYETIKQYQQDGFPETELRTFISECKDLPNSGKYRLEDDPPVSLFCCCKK

SMILES: Oc1nc2ccc(Cl)cc2c(-c2ccccc2)c1N1CCN(c2ccccn2)CC1
- EC50 [1]: 45.8 µM (active)
- EC50 [2]: 8.58 µM (active)
- EC50 [3]: 5.29 µM (active)
- EC50 [4]: 5.29 µM (active)

SMILES: CC(Oc1ccc(Cl)cc1Cl)C(=O)Nc1ccc2oc(-c3ccncc3)nc2c1 (stereo not given)
- EC50 [5]: 11.4 µM (active)
- EC50 [1]: 9.54 µM (active)
- EC50 [6]: > 150 µM (not active)
- EC50 [4]: 8.75 µM (active)

SMILES: COc1ccc2c(c1)CC/C(=C\C=C\c1ccccc1OC)C2=O
- EC50 [7]: > 120 µM (not active)
- EC50 [8]: 1.99 µM (active)
- EC50 [9]: 13.8 µM (active)
- IC50 [10]: > 100 µM (active)

SMILES: COC(=O)c1cc(-c2ccc(S(=O)(=O)N3CCCCC3)cc2)c(C(F)(F)F)s1
- EC50 [11]: > 29.9 µM (not active)
- EC50 [12]: > 29.9 µM (not active)

SMILES: Oc1ccccc1-c1nc(-c2ccccc2)c(-c2ccccc2)[nH]1
- IC50 [13]: > 17 µM (not active)
